Measurements reported in US3984410A, “Isourea acetylphosphate insecticides” (priority 1975, dated 1976).
Values after ≈ are worked out from the molar mass of the structure shown. Read-outs that look alike come from different tables or passages of the source.

How the values were obtained:
Assay type in all cases: in vivo
[1] = system: housefly (Musca domestica L.); test: Housefly mortality, residue on aluminum dishes; settings: 25 3-day old female houseflies; mortality after 48 hours
Protocol: Test compounds are diluted in acetone and aliquots are pipetted onto the bottom of 55 × 15 mm aluminum dishes. To insure even spreading of the chemical on the bottom of the dishes, 1 ml of acetone containing 0.02% peanut oil is also added to each dish. After all solvents have evaporated the dishes are placed in circular cardboard cages containing 25 3-day old female houseflies. The cages are covered on the bottom with cellophane and the top with tulle netting, and each contains a sugar-water saturated cotton plug for maintenance of the flies. Mortality is recorded after 48 hours. Test levels range from 100 μg/25 F. houseflies down to that at which approximately 50% mortality occurs.

[2] = system: Green Peach Aphid [Myzus persicae (Sulzer)]; test: Green Peach Aphid spray on radish plants; settings: sprayed to runoff on radish plants; mortality after 48 hours
Protocol: Radish plants (Rhaphanus sativus), approximately 2 cm tall, are transplanted into sandy loam soil in 3-inch clay pots and infested with 25-50 green peach aphids of mixed ages. Twenty-four hours later they are sprayed, to the point of runoff, with 50--50 acetone-water solutions of the test chemicals. Treated plants are held in the greenhouse and mortality is recorded after 48 hours. Test concentrations range from 0.05% down to that at which 50% mortality occurs.

[3] = system: Black Bean Aphid [Aphis fabae (Scop.)]; test: Direct Spray Assay on Black Bean Aphid; settings: direct spray on nasturtium plants; mortality after 7 days
Protocol: Nasturtium plants (Tropaeolum sp.), approximately 5 cm tall, are transplanted into sandy loam soil in 3-inch clay pots and infested with 25-50 black bean aphids of mixed ages. Twenty-four hours later they are sprayed, to the point of runoff, with 50--50 acetone-water solutions of the test chemicals. Treated plants are held in the greenhouse and mortality is recorded after 7 days. Test concentrations range from 0.05% down to that at which 50% mortality occurs.

[4] = system: Black Bean Aphid [Aphis fabae (Scop.)]; test: Systemic Assay on Black Bean Aphid; settings: 168 h, read-out: Insecticide Activity - Approximate LD50, BAS (Black Bean Aphid - systemic)
Protocol: Test chemicals are diluted in acetone and aliquots are thoroughly mixed into 500 grams of dry, sandy loam soil. The treated soil is placed in a pint ice cream carton and a nasturtium plant (Tropaeolum sp.) approximately 5 cm tall is transplanted into each carton. The plants are then infested with approximately 25 black bean aphids of mixed ages and placed in the greenhouse. Seven days later mortality is recorded. Test concentrations range from 10 PPM down to that at which approximately 50% mortality occurs.

[5] = system: Lygus Bug [Lygus hesperus (Knight)]; test: Lygus Bug spray; settings: spray on adult bugs; mortality after 48 hours
Protocol: Test compounds are in a 50--50 acetone-water solution. Two cc of the solutions are sprayed through a Devilbiss type EGA hand spray gun into circular cardboard cages containing one string bean pod and ten adult lygus bugs. The test cages are covered on the bottom with cellophane and the top with tulle netting. Percent mortality is recorded 48 hours later. Test concentrations range from 0.05% down to that at which approximately 50% mortality occurs.

[6] = system: German Cockroach [Blattella germanica (Linne)]; test: German Cockroach spray
Protocol: Test compounds are diluted in a 50--50 acetone-water solution. Two cc of the solutions are sprayed through a DeVilbiss type EGA hand spray gun into circular cardboard cages containing 10 l-month-old German cockroach nymphs. The test cages are covered on the bottom with cellophane and the top with tulle netting. Percent mortality is recorded 7 days later. Test concentrations range from 0.1% down to that at which approximately 50% mortality occurs.

[7] = system: Southern House Mosquito [Culex pipiens quinquefasciatus (Say)]; test: Southern House Mosquito larvae in aqueous solution; settings: 48 h, read-out: Insecticide Activity - Approximate LD50, MOS (Southern House Mosquito)
Protocol: Insecticidal activity is determined using third-instar larvae of the mosquito (Culex pipiens quinquefasciatus). Ten larvae are placed in a 6-ounce, number 67 Dixie wax paper cup containing 100 ml of an aqueous solution of the test chemical. The treated larvae are stored at 70°F, and 48 hours later the mortality is recorded. Test concentrations range from 0.5 PPM down to that at which approximately 50% mortality occurs.

[8] = system: Cabbage Looper [Trichoplusia ni (Hubner)]; test: Cabbage Looper on dipped squash cotyledons; settings: second-instar larvae, cotyledon dip; 48 hours plus 5 days
Protocol: (§1) Test compounds are diluted in a 50--50 acetone-water solution. Cotyledons of hyzini squash (Calabacita abobrinha), approximately 1 × 1.5 inches, are immersed in the test solutions for 2-3 seconds and placed on a wire screen to dry. The dried leaves are placed in petri dishes containing a moistened piece of filter paper and infested with five second-instar cabbage looper larvae. Mortality of the larvae is recorded 48 hours later, and a piece of synthetic media is added to dishes containing survivors. These are then held for 5 additional days to observe for any delayed effects of the test chemicals. Test concentrations range from 0.1% down to that at which approximately 50% mortality occurs.

[9] = system: Tobacco Budworm [Heliothis virescens (F.)]; test: Tobacco Budworm on dipped Romaine lettuce leaves; settings: larvae, Romaine lettuce leaf dip; 48 hours plus 5 days
Protocol: as §1
The procedure is the same as that used for the cabbage looper, except that sections of Romaine lettuce (Latica sativa) leaves were used instead of cotyledons of hyzini squash.

[10] = systemic, chemical in soil, mortality after 7 days
[11] = spray on 1-month-old nymphs, mortality after 7 days

| Structure (SMILES) | Insecticide Activity - Approximate LD50, HF (Housefly) [1] [μg/25 F.] | Insecticide Activity - Approximate LD50, GPA (Green Peach Aphid) [2] | Insecticide Activity - Approximate LD50, BA (Black Bean Aphid - direct spray) [3] | LC50 [4, 10] [µg/mL] | Insecticide Activity - Approximate LD50, LB (Lygus Bug) [5] | Insecticide Activity - Approximate LD50, GR (German Cockroach) [6, 11] | LC50 [7] [µg/mL] | Insecticide Activity - Approximate LD50, CL (Cabbage Looper) [8] | Insecticide Activity - Approximate LD50, TBW (Tobacco Budworm) [9] | LC50 ([4]; soil) [µg/mL] | Insecticide Activity - Approximate LD50, GR (German Cockroach) ([6]; 168 h) |
| --- | --- | --- | --- | --- | --- | --- | --- | --- | --- | --- | --- |
| C=CCN(CC=C)C(=NC(=O)CSP(=S)(OCC)OCC)OC [Compound 1, N,N-Diallyl-N'-(O,O-diethylphosphorodithioylacetyl)-O-methylisourea] | 10 | > .05% | .003% | 3 (≈ 7.88 µM) | .05% | > .1% | 1 (≈ 2.63 µM) | – | – | – | – |
| C=CCN(CC=C)C(=NC(=O)CSP(=S)(OC)OC)OC [Compound 2] | 8 | – | .008% | 5 (≈ 14.2 µM) | > .05% | > .1% | > 1 | – | – | – | – |
| CCOP(=S)(OCC)SCC(=O)N=C(OC)N1CCCCC1 [Compound 3] | 25 | .008% | .001% | > 10 | .05% | > .1% | 1 (≈ 2.71 µM) | > .1% | > .1% | – | – |
| CCOP(=S)(OCC)SCC(=O)N=C(OC)N1CCOCC1 [Compound 4, N-morpholino-N'-(O,O-diethylphosphorodithioylacetyl)-O-methylisourea] | 27 | > .05% | .0008% | 5 (≈ 13.5 µM) | .05% | > .1% | > 1 | – | – | – | – |
| CCOP(=S)(OCC)SCC(=O)N=C(OC)N(CC)CC [Compound 5] | 23 | .03% | .001% | > 10 | > .05% | .1% | > 1 | > .1% | > .1% | – | – |
| CCN(CC)C(=NC(=O)CSP(=S)(OC)OC)OC [Compound 6] | 24 | > .05% | .05% | – | > .05% | > .1% | > 1 | > .1% | > .1% | – | – |
| CCOP(=S)(OCC)SCC(=O)N=C(OC)N(C)c1ccccc1 [Compound 8] | 30 | .03% | .0008% | – | > .05% | – | > 1 | > .1% | .1% | > 1 | > .05% |
| C=CCN(C(=NC(=O)CSP(=S)(OCC)OCC)OC)c1ccccc1 [Compound 10] | 10 | – | > .05% | – | .05% | > .1% | > 1 | > .1% | > .1% | – | – |
| C=CCN(C(=NC(=O)CSP(=S)(OC)OC)OC)c1ccccc1 [Compound 11] | 30 | .03% | .005% | > 10 | > .05% | > .1% | > 1 | > .1% | > .1% | – | – |
| CCOP(=S)(OCC)SCC(=O)N=C(OC)N(C)Cc1ccccc1 [Compound 12] | 24 | – | > .05% | – | > .05% | > .1% | > 1 | > .1% | > .1% | – | – |
| COC(=NC(=O)CSP(=S)(OC)OC)N(C)Cc1ccccc1 [Compound 13] | 30 | – | > .05% | – | > .05% | > .1% | > 1 | > .1% | > .1% | – | – |
| CCOP(=S)(OCC)SCC(=O)N=C(OC)N(CC)c1ccccc1 [Compound 15] | 30 | .03% | .005% | 2 (≈ 4.94 µM) | > .05% | > .1% | > 1 | .1% | > .1% | – | – |
| CCN(C(=NC(=O)CSP(=S)(OC)OC)OC)c1ccccc1 [Compound 16] | 25 | – | .03% | > 10 | > .05% | > .1% | > 1 | .1% | > .1% | – | – |
| CCOP(=S)(OCC)SCC(=O)N=C(OC)N(CC)c1cccc(C)c1 [Compound 18] | 22 | .005% | .0005% | 5 (≈ 11.9 µM) | > .05% | .1% | > 1 | > .1% | .1% | – | – |
